Test results taken from ChEMBL document CHEMBL1154245, “Parazoanthines A-E, hydantoin alkaloids from the Mediterranean sea anemone Parazoanthus axinellae” (J Nat Prod, 2009).
Calls of active or inactive are those of the source. The rule behind the calls is not given here.

Legend:
A549 = experiment: Antitumor activity against human A549 cells; format: functional, cell-based
Plasmodium falciparum = experiment: Antimalarial activity against Plasmodium falciparum FcB1; format: functional, organism-based; conditions: FcB1/Columbia
MDA-MB-231 = experiment: Antitumor activity against human MDA-MB-231 cells; format: functional, cell-based
HT-29 = experiment: Antitumor activity against human HT-29 cells; format: functional, cell-based
[1] = Toxicity against Ircinia variabilis
[2] = Toxicity against Dysidea avara

SMILES	Activity (A549)	Activity (Plasmodium falciparum)	Activity (MDA-MB-231)	Activity (HT-29)	EC50 [1] [µM]	EC50 [2] [µM]
COc1ccc(/C=C/N2C(=O)N[C@@H](CCCNC(=N)N)C2=O)cc1Br	inactive	inactive	inactive	inactive	–	–
COc1ccc(/C=C/N2C(=O)N/C(=C\CCNC(=N)N)C2=O)cc1Br	inactive	inactive	inactive	inactive	–	–
N=C(N)NCC/C=C1\NC(=O)N(/C=C/c2ccc(O)cc2)C1=O	inactive	inactive	inactive	inactive	–	–
N=C(N)NCCC[C@@H]1NC(=O)N(/C=C/c2ccc(O)cc2)C1=O	inactive	inactive	inactive	inactive	–	–
COc1ccc(/C=C/N2C(=O)N/C(=C\CCNC(=N)N)C2=O)cc1 [PARAZOANTHINE C]	inactive	inactive	inactive	inactive	1.64	1.64
